In PubChem BioAssay (NCI) one finds TGI data, which are given here for 28 compounds.

What all share (assay): inhibition of tumour cell growth, NCI panel, 48 h
The test system of test [1] is HL-60(TB) leukemia.
Test [2] deals with HCT-15 colon.
The subject of test [3] is SNB-19 CNS.
The subject of test [4] is DU-145 prostate.
The subject of test [5] is UACC-62 melanoma.
The test system of test [6] is MDA-N.
Test [7] relates to HT29 colon.
Test [8] concerns HCC-2998 colon.
Test [9] relates to UO-31 renal.
Test [10] has as its system SK-MEL-5 melanoma.

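Following 48 hours of exposure in 96-well plates, responses at five concentrations were used to interpolate endpoints linearly. TGI: total growth inhibition.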

As for `O=C1CC(n2cccc2)c2c(Br)sc(Br)c21` (stereo not given), the TGI in test [1] amounted to 41.4 µM; in test [2] it was 30.7 µM; in test [3], 28.1 µM; in test [4] it was 31.8 µM; in test [5], 30.3 µM; in [6], 31.6 µM. Further, the TGI was found to be 32.1 µM in [7], 28.7 µM in test [8], 5.66 µM in [9] and 29.6 µM in test [10].
For `Cc1nc(-c2cc3cc(Cl)ccc3oc2=O)cc2c1c(=O)oc1ccc(Cl)cc12`, the TGI in test [1], in test [2], in test [3], in [4], in [5] and in test [6] was over 100 µM each time. In addition, the TGI in [7], in test [8], in test [9] and in [10] was over 100 µM in each case.
Take `CCOC(=O)C1(C(F)(F)F)N=C(CC)OC(N2CCOCC2)=N1` (stereo not given): the TGI in test [1], in [2], in [3], in test [4], in test [5] and in test [6] was over 100 µM in each case. Also, the TGI in [7], in test [8], in test [9] and in test [10] was over 100 µM each time.
Turning to `CCCNc1ncnc2[nH]ncc12`, the TGI in test [1], in [2], in test [3], in test [4], in test [5] and in [6] was over 100 µM in each case. The TGI in test [7], in test [8], in test [9] and in [10] was over 100 µM each time.
With `Cc1ccc(/C(O)=C/c2nc3ccc([N+](=O)[O-])cc3nc2/C=C(\O)c2ccc(C)cc2)cc1`, the TGI is over 100 µM in test [1]; over 100 µM in test [2]; over 77.1 µM in test [3]; over 100 µM in test [4]; over 69.3 µM in test [5]; over 100 µM in [6]. Also, the TGI in [7], in test [8], in test [9] and in test [10] was over 100 µM throughout.
Turning to `NS(=O)(=O)c1ccc(NNc2c3ccccc3nc3c(C(=O)Nc4ccc(S(=O)(=O)Nc5ncccn5)cc4)cccc23)cc1`, the TGI in [1], in [2], in test [3], in test [4], in test [5] and in test [6] was over 25 µM each time. Further, the TGI in test [7], in test [8], in [9] and in test [10] was over 25 µM each time.
On to `Cn1c2ccccc2n2c3ncccc3c(=S)c(C#N)c12`, for which the TGI in [1], in test [2], in test [3], in [4], in test [5] and in test [6] was over 100 µM throughout. The TGI in test [7], in test [8], in test [9] and in test [10] was over 100 µM in each case.
Consider `C(/Cc1ccc2c(c1)OCO2)=N\NC1=NCCCN1`, for which the TGI in test [1], in test [2], in test [3], in [4], in test [5] and in test [6] was over 100 µM each time. In addition, the TGI was over 100 µM in test [7], over 100 µM in [8], over 100 µM in test [9] and 56.4 µM in [10].
For `COc1ccc(-c2cc(C(O)C3CCCCN3)c3ccccc3n2)cc1` (stereo not given), the TGI in [1] was found to be 26.4 µM; in test [2], 34.2 µM; in test [3], 28.1 µM; in test [4], 20.5 µM; in [5], 12 µM; in test [6], 16.7 µM. In addition, the TGI in test [7] is 11.5 µM; in test [8] it was 3.7 µM; in [9], 8.54 µM; in [10] it was 17.2 µM.
As to `CN(C)C(=S)Oc1ccc2ccc(=O)oc2c1`, the TGI in test [1], in test [2], in [3], in test [4], in test [5] and in [6] was over 100 µM each time. Further, the TGI in test [7], in [8], in test [9] and in test [10] was over 100 µM in each case.
`COC(=O)c1c(C)nc(C)c(NO)c1-c1ccccc1C(F)(F)F`: the TGI in test [1] is over 100 µM; in test [2] it was 32.3 µM; in test [3] it was over 100 µM; in [4], over 100 µM; in test [5] it was over 100 µM; in test [6], 30.5 µM. Besides, the TGI was 33.7 µM in [7], over 100 µM in [8], 74.2 µM in test [9] and over 100 µM in test [10].
For `CC(=O)Nc1cc(Nc2cc(=O)[nH]c(=O)[nH]2)ccc1C`, the TGI in test [1], in test [2], in [3], in [4], in [6] and in [8] was over 100 µM throughout. Also, the TGI in test [9] and in test [10] was over 100 µM throughout.
`CCOC(=O)c1cnccc1CC1(C#N)c2ccccc2C=CN1C(=O)c1ccccc1` (stereo not given): the TGI is over 100 µM in [1]; over 100 µM in test [2]; over 100 µM in test [3]; over 100 µM in test [4]; 80.9 µM in test [5]; 45.8 µM in test [6]. Moreover, the TGI was 36 µM in test [7], over 100 µM in test [8], 91.1 µM in test [9] and 37.8 µM in [10].
As for `Nc1nc(Cl)cc(NCC2(O)CCCC2)n1`, the TGI in test [1], in [2], in test [4], in test [5], in test [6] and in [7] was over 100 µM each time. Moreover, the TGI in test [8], in [9] and in [10] was over 100 µM throughout.
Consider `CC(=O)/C(=C\c1ccc(Cl)c(Cl)c1)C(=O)C(C)CN(C)C` (stereo not given), for which the TGI stood at 5.36 µM in [1]; 10.1 µM in test [2]; 5.56 µM in test [3]; 17.3 µM in [4]; 16.2 µM in [6]; 24.1 µM in test [7]. Moreover, the TGI in test [8] stood at 9.66 µM; in test [9], 14.5 µM; in test [10], 25.3 µM.
Take `C/C(=N\Nc1nc2ccccc2[nH]1)c1cc2ccccc2cn1`: the TGI in test [2] came to 2.51 µM; in test [3], 1.64 µM; in [4] it was 1.91 µM; in [5] it was 1.09 µM; in test [6], 2.24 µM; in [7], 1.02 µM. The TGI in test [8] was 3.46 µM; in [9] it was 1.38 µM; in [10], 1.6 µM.
Regarding `CC(C)(C)OC(=O)n1cc(C2CN(O)C(=O)C23CCC(=O)N3Cc2ccccc2)c2ccccc21` (stereo not given), the TGI in test [1], in test [3], in test [4], in test [5], in test [6] and in test [7] was over 100 µM throughout. In addition, the TGI in test [9] and in [10] was over 100 µM throughout.
In the case of `CS(=O)(=O)NC12CCC(c3ccccc31)c1ccccc12`, the TGI in test [1], in test [2], in test [3], in [4], in [5] and in test [6] was over 100 µM each time. In addition, the TGI in test [7], in test [9] and in test [10] was over 100 µM in each case.
In the case of `COC(=O)C1=C(O)C(C(=O)OC)[C@]2(O)[C@H](C(=O)OC)[C@H]1C[C@@H](c1ccc([N+](=O)[O-])cc1)[C@H]2C(=O)OC` (stereo not given in full), the TGI in test [1] is 45.8 µM; in test [2] it was 38.6 µM; in test [3] it was 65.5 µM; in test [4] it was over 100 µM; in [5] it was 29.1 µM; in [6], 35.6 µM. In addition, the TGI in test [7] stood at 55.6 µM; in test [10], 30 µM.
On to `NC(=O)CO/N=C1/C(c2c(O)[nH]c3ccccc23)=Nc2ccccc21`, for which the TGI in test [1], in test [2], in [3], in test [4], in [5] and in test [6] was over 100 µM in each case. The TGI in [7], in [9] and in test [10] was over 100 µM in each case.
With `Cc1cc2c(c(=O)n1C)SCC2`, the TGI in test [2], in test [3], in test [4], in test [5], in [6] and in test [7] was over 100 µM in each case. Further, the TGI in [8], in [9] and in [10] was over 100 µM in each case.
On to `Cc1cc2cc3c(cc2c(-c2ccc(N)cc2)n1)OCO3`, for which the TGI was 47.3 µM in test [1]; over 100 µM in test [2]; over 100 µM in [3]; over 100 µM in test [4]; over 100 µM in [5]; over 100 µM in [6]. Also, the results for the TGI in test [7], in test [9] and in test [10] were 62.2 µM, over 100 µM and 71.9 µM, respectively.
For the compound `COc1ccc2nc3n(c2c1)CCc1cc(OC)c(OC)cc1-3`, the TGI in [1], in [2], in test [3], in test [4], in test [5] and in test [6] was over 100 µM in each case. The results for the TGI in test [7], in test [8] and in test [10] were 95.8 µM, 52.9 µM and 47.2 µM, respectively.
With `COC(=O)CCCC(=O)NC1=C(NCc2ccccc2)C(=O)c2ccccc2C1=O`, the TGI in test [1] was 77.3 µM; in [2] it was over 100 µM; in test [3], over 100 µM; in test [4] it was over 100 µM; in [5] it was over 100 µM; in test [6], over 100 µM. In addition, the TGI in test [8] and in test [9] was over 100 µM throughout.
For `CC(C)OC1OC(CO)C(O)CC1n1cc(F)c(=O)[nH]c1=O` (stereo not given), the TGI in [2], in test [3], in test [4], in test [5], in [6] and in test [7] was over 100 µM throughout. Also, the TGI in [8], in test [9] and in test [10] was over 100 µM each time.
For the compound `C=C(C)[C@@H]1CC[C@]2(C(=O)O)CC[C@]3(C)[C@H](CCC4[C@@]5(C)CC[C@H](C(=O)/C=C/c6ccc(O)c(O)c6)C(C)(C)[C@@H]5CC[C@]43C)[C@@H]12` (stereo not given in full), the TGI in test [1] was over 100 µM; in test [2], 26.8 µM; in test [3] it was over 100 µM; in [4] it was 28.1 µM; in [5], 27.6 µM; in test [6], 15.9 µM. In addition, the values for the TGI in test [8], in test [9] and in [10] were 7 µM, 12.9 µM and 18.8 µM, respectively.
In the case of `O=C1c2ccccc2-c2[nH]c3cn[nH]c(=O)c3c21`, the TGI in test [1], in test [2], in test [3], in test [4], in test [5] and in test [6] was over 100 µM each time. For the same compound, the TGI in test [7], in test [9] and in test [10] was over 100 µM each time.
Regarding `CCOP(=O)(OCC)/C(C#N)=C/c1cccn1Cc1ccccc1`, the TGI in test [2] is over 100 µM; in test [3], over 100 µM; in test [4], over 100 µM; in [5], 55 µM; in test [6] it was 92.4 µM; in [7], over 100 µM. Moreover, the TGI was over 100 µM in test [8], 99.7 µM in test [9] and 32.5 µM in test [10].
